Data taken from paper PMC7193450 (Asian Journal of Pharmaceutical Sciences, 2018).

How the values were obtained:
rat kidney slices = test: In vitro uptake in rat kidney slices; type: in vitro ADME; details: for Effect on the uptake of cilastatin in rat kidney slices / Effect on the uptake of imipenem in rat kidney slices: inhibitor 200 µM; for Effect on the uptake of cilastatin in rat kidney slices: cilastatin 100 µM; for Effect on the uptake of imipenem in rat kidney slices: imipenem 100 µM; for Uptake in rat kidney slices at 37 °C compared with 4 °C: 100 µM
human OAT3 (hOAT3) = target: T1, human OAT3 (hOAT3) (Homo sapiens, UniProt Q8TCC7); test: In vitro transporter uptake assay in hOAT3-HEK293 cells; type: in vitro ADME; details: for Uptake in hOAT3-HEK293 cells compared with mock cells: 100 µM
T1 sequence (Q8TCC7 1-542): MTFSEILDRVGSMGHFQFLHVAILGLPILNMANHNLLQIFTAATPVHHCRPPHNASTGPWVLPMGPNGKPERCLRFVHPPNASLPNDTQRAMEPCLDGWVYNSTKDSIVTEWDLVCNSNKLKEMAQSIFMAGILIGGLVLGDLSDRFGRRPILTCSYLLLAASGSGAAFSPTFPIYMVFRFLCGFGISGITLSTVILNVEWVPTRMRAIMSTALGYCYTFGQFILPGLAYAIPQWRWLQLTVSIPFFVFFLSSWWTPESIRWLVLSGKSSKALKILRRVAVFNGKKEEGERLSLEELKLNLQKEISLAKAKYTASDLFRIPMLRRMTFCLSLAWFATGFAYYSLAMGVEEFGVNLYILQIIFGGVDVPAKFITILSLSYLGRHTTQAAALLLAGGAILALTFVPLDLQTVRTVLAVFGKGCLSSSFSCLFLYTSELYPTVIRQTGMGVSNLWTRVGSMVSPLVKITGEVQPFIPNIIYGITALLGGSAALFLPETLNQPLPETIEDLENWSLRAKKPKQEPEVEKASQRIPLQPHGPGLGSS

[1] = Pharmacokinetic interaction in vivo in rats; details: rat; for AUC(0-inf) / C0 / clearance / half-life: Wistar, plasma, iv; for AUC(0-inf) / C0 / clearance / half-life / Cumulative urinary excretion over 8 h, compared with alone group: 45 mg/kg; for AUC(0-inf): AUC0→∞; for clearance: CLP; for half-life: T1/2β; for Cumulative urinary excretion over 8 h, compared with alone group: with probenecid 100 mg/kg
OAT3 = target: T2, OAT3 (Homo sapiens, UniProt Q8TCC7); test: In vitro transporter uptake assay in hOAT3-HEK293 cells; type: in vitro ADME; details: human, HEK293 cells transfected with human OAT3 (hOAT3-HEK293), pH 7.4
T2 sequence (Q8TCC7 1-542): T1 sequence (Q8TCC7 1-542)

OAT1 = target: T3, OAT1 (Homo sapiens, UniProt Q4U2R8); test: In vitro transporter uptake assay in hOAT1-HEK293 cells; details: human, pH 7.4
T3 sequence (Q4U2R8 1-563): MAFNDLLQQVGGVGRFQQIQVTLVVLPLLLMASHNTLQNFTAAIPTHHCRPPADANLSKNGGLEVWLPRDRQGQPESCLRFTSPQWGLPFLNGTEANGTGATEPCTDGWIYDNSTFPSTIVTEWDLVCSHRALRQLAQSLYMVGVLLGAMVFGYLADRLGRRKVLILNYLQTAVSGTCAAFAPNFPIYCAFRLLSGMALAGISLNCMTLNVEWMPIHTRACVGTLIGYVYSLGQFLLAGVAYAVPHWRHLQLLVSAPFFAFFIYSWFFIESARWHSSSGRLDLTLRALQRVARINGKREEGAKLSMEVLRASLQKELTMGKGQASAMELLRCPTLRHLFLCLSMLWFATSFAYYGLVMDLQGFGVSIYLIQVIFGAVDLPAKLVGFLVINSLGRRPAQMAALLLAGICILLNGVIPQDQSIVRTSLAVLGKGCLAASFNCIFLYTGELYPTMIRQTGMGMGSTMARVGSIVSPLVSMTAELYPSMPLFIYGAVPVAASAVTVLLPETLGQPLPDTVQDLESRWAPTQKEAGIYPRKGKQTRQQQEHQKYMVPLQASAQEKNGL

human OAT1 (hOAT1) = target: T4, human OAT1 (hOAT1) (Homo sapiens, UniProt Q4U2R8); test: as above
T4 sequence (Q4U2R8 1-563): T3 sequence (Q4U2R8 1-563)

[2] = substrate: CC1(C)C[C@@H]1C(=O)N/C(=C\CCCCSC[C@H](N)C(=O)O)C(=O)O; test: cells, lysate or membranes named; details: other: hOAT3-HEK293 cells, alone, 1 min uptake, 0–2000 µM; pH 7.4; 37.0 °C
[3] = of cilastatin, i.v., cilastatin + imipenem, 45 mg/kg for both
[4] = C0, rat, single administration (alone)
[5] = imipenem 100 µM, cilastatin 0–2000 µM, Eadie–Hofstee plot
[6] = of imipenem, i.v., imipenem + cilastatin, 45 mg/kg for both

Molecule: CC1(C)S[C@@H]2[C@H](NC(=O)Cc3ccccc3)C(=O)N2[C@H]1C(=O)O [PCG, benzylpenicillin]
- Effect on the uptake of cilastatin in rat kidney slices (rat kidney slices): inhibited
- Effect on the uptake of imipenem in rat kidney slices (rat kidney slices): inhibited
- Effect on uptake of imipenem and cilastatin in hOAT3-HEK293 cells (human OAT3 (hOAT3); PCG 200 µM, imipenem 100 µM, cilastatin 100 µM): significantly inhibited

Molecule: CCCN(CCC)S(=O)(=O)c1ccc(C(=O)O)cc1 [probenecid, Probenecid]
- Effect on the uptake of cilastatin in rat kidney slices (rat kidney slices): inhibited
- Effect on the uptake of imipenem in rat kidney slices (rat kidney slices): inhibited

Molecule: CC1(C)C[C@@H]1C(=O)N/C(=C\CCCCSC[C@H](N)C(=O)O)C(=O)O [Cilastatin]
- Uptake in rat kidney slices at 37 °C compared with 4 °C (rat kidney slices): significantly higher
- Uptake in hOAT3-HEK293 cells compared with mock cells (human OAT3 (hOAT3)): significantly higher
- AUC(0-inf) [1, 3]: 84700 ng·h/mL
- AUC(0-inf) ([1]; single administration (alone)): 56500 ng·h/mL
- C0 ([1]; C0, of cilastatin, i.v., cilastatin + imipenem, 45 mg/kg for both): 175 ± 11.1 µg/mL
- C0 [1, 4]: 156 ± 3.6 µg/mL
- clearance [1, 3]: 8.9 ± 0.3 mL/min/kg
- clearance ([1]; single administration (alone)): 13.3 ± 0.1 mL/min/kg
- half-life [1, 3]: 28.6 ± 4 min
- half-life ([1]; single administration (alone)): 19.7 ± 0.8 min
- Cumulative urinary excretion over 8 h, compared with alone group ([1]; i.v.): significantly decreased
- Cumulative urinary excretion of cilastatin, compared with cilastatin alone group ([1]; i.v., co-administered with imipenem, 45 mg/kg for both): decreased significantly

Molecule: Nc1ccc(C(=O)NCC(=O)O)cc1 [PAH, p-aminohippurate]
- Effect on the uptake of cilastatin in rat kidney slices (rat kidney slices): inhibited
- Effect on the uptake of imipenem in rat kidney slices (rat kidney slices): inhibited

Molecule: CC[N+](CC)(CC)CC [TEA, tetraethyl ammonium]
- Effect on the uptake of cilastatin in rat kidney slices (rat kidney slices): not TEA inhibited
- Effect on the uptake of imipenem in rat kidney slices (rat kidney slices): not TEA inhibited

Molecule: C[C@@H](O)[C@H]1C(=O)N2C(C(=O)O)=C(SCCN=CN)C[C@H]12 [Imipenem]
- Uptake in rat kidney slices at 37 °C compared with 4 °C (rat kidney slices): significantly higher
- Km at 1 min (OAT3): 759 ± 62 µM
- Uptake in hOAT3-HEK293 cells compared with mock cells (human OAT3 (hOAT3)): significantly higher
- Vmax (human OAT3 (hOAT3); hOAT3, alone): 0.329 ± 0.036 nmol/mg protein/min
- Vmax (human OAT3 (hOAT3); hOAT3-HEK293 cells, alone, 1 min uptake, 0–2000 µM): 0.329 ± 0.036 nmol/mg protein/1 min
- Inhibitory type on the uptake of cilastatin in hOAT3-HEK293 cells (human OAT3 (hOAT3); [5]): competitive
- Km at 1 min (OAT1): 631 ± 30 µM
- Uptake in hOAT1-HEK293 cells compared with mock cells (human OAT1 (hOAT1); 100 µM): significantly higher
- Vmax (human OAT1 (hOAT1); hOAT1, alone): 0.223 ± 0.011 nmol/mg protein/min
- Vmax (human OAT1 (hOAT1); hOAT1-HEK293 cells, alone, 1 min uptake, 0–2000 µM): 0.223 ± 0.011 nmol/mg protein/1 min
- Inhibitory type on the uptake of cilastatin in hOAT1-HEK293 cells (human OAT1 (hOAT1); [5]): competitive
- AUC(0-inf) [1, 6]: 92400 ng·h/mL
- AUC(0-inf) ([1]; single administration (alone)): 34800 ng·h/mL
- C0 ([1]; C0, of imipenem, i.v., imipenem + cilastatin, 45 mg/kg for both): 187 ± 13.5 µg/mL
- C0 [1, 4]: 129 ± 2.6 µg/mL
- clearance [1, 6]: 8.1 ± 0.4 mL/min/kg
- clearance ([1]; single administration (alone)): 21.6 ± 0.4 mL/min/kg
- half-life [1, 6]: 62 ± 1.4 min
- half-life ([1]; single administration (alone)): 18.5 ± 2.8 min
- Cumulative urinary excretion over 8 h, compared with alone group ([1]; i.v.): significantly decreased

B1: human OAT3 (hOAT3) (Homo sapiens) (protein)
chain: T1 sequence (Q8TCC7 1-542)
- Km [2]: 238 ± 2 µM
- Vmax [2]: 0.000751 µmol/min/mg
